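Dose response: 5 concentrations. Exposure: 48 h. Format: 96-well plates. Endpoint: linear interpolation; highest concentration if not reached. GI50 is the concentration that inhibits growth by half. At the TGI there is no net growth.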
Legend:
Experiment in all cases: NCI anticancer screen, dose series, 48 h
MOLT-4 leukemia = tested on: MOLT-4 leukemia
UACC-62 melanoma = tested on: UACC-62 melanoma
A498 renal = tested on: A498 renal
SF-295 CNS = tested on: SF-295 CNS
COLO 205 colon = tested on: COLO 205 colon
NCI-H23 lung = tested on: NCI-H23 lung
SR leukemia = tested on: SR leukemia
SW-620 colon = tested on: SW-620 colon
DU-145 prostate = tested on: DU-145 prostate
BT-549 breast = tested on: BT-549 breast

Row | SMILES | TGI (MOLT-4 leukemia) [µM] | TGI (UACC-62 melanoma) [µM] | TGI (A498 renal) [µM] | TGI (SF-295 CNS) [µM] | TGI (COLO 205 colon) [µM] | TGI (NCI-H23 lung) [µM] | TGI (SR leukemia) [µM] | TGI (SW-620 colon) [µM] | TGI (DU-145 prostate) [µM] | TGI (BT-549 breast) [µM] | GI50 (MOLT-4 leukemia) [µM] | GI50 (UACC-62 melanoma) [µM] | GI50 (A498 renal) [µM] | GI50 (SF-295 CNS) [µM] | GI50 (COLO 205 colon) [µM] | GI50 (NCI-H23 lung) [µM] | GI50 (SR leukemia) [µM] | GI50 (SW-620 colon) [µM] | GI50 (DU-145 prostate) [µM] | GI50 (BT-549 breast) [µM]
1 | Clc1cc(C(c2cc(Cl)sc2Cl)c2cc(Cl)sc2Cl)c(Cl)s1 | > 100 | > 100 | > 100 | > 100 | > 100 | > 100 | > 100 | > 100 | > 100 | – | – | – | – | – | – | – | – | – | – | –
2 | CC(=O)OC1CC2(O)C(CCC3(C)C(c4ccc(=O)oc4)CCC32O)C2(C)C1=CC(O)C1OC12 (configuration not stated) | 0.0366 | 0.117 | 0.582 | 0.261 | 0.354 | 0.0618 | – | 0.144 | – | – | – | – | – | – | – | – | – | – | – | –
3 | CC(C)=CCC12Cc3ccc(O)cc3C(C(C)CN1)C2C (configuration not stated) | > 100 | > 100 | > 100 | > 100 | > 100 | > 100 | > 100 | > 100 | > 100 | – | – | – | – | – | – | – | – | – | – | –
4 | C[C@H](c1ccccc1)N1C(=O)[C@@H](OCc2ccccc2)[C@H]1[C@H](COC(=O)COCc1ccccc1)OCc1ccccc1 | > 100 | > 100 | > 100 | > 100 | > 100 | > 100 | > 100 | > 100 | > 100 | – | – | – | – | – | – | – | – | – | – | –
5 | CC(=O)N(C)c1ccc(Nc2ccnc3ccc4nn(C)nc4c23)cc1 | 58 | 37 | – | 59 | 45.2 | 82.1 | 77.1 | > 100 | 92.2 | 69.4 | – | – | – | – | – | – | – | – | – | –
6 | O=c1ccn(-c2ccccn2)c(=O)n1-c1ccccn1 | > 100 | – | > 100 | > 100 | > 100 | > 100 | – | > 100 | > 100 | – | – | – | – | – | – | – | – | – | – | –
7 | Nc1c(S(N)(=O)=O)cc(S(N)(=O)=O)cc1S(N)(=O)=O | > 100 | > 100 | > 100 | > 100 | > 100 | > 100 | – | > 100 | > 100 | > 100 | – | – | – | – | – | – | – | – | – | –
8 | CCCO/N=[N+](\[O-])N(CC)CC | > 100 | > 100 | > 100 | > 100 | – | > 100 | > 100 | > 100 | – | – | – | – | – | – | – | – | – | – | – | –
9 | Oc1c(OCc2nnc(CCCCCCCCc3nnc(COc4ccc5ccccc5c4O)o3)o2)ccc2ccccc12 | > 100 | > 100 | > 100 | > 100 | > 100 | > 100 | – | > 100 | > 100 | > 100 | – | – | – | – | – | – | – | – | – | –
10 | CCN(CCCCCCCCCCN1CC(=O)N(CCCCCCCCCCN(CC)Cc2ccccc2OC)CC1=O)Cc1ccccc1OC | 8.04 | 3.89 | 2.94 | 3.02 | 2.52 | 4.52 | 2.37 | 3.95 | 2.78 | – | 1.8 | 2.06 | 1.09 | 1.15 | 1.05 | 1.81 | 0.355 | 1.75 | 1.39 | –
11 | O=[N+]([O-])/C(Cl)=C(/C(Cl)=C(Cl)Cl)N1CCCCC1 | 11.7 | 17.1 | 33.4 | 54.3 | 22.7 | 22.2 | 7.5 | – | 27 | – | – | – | – | – | – | – | – | – | – | –
12 | CCCCCCCCCCCCOCCOCCOCCOCCOCCOCC(=O)NC(Cc1ccccc1)C(=O)Oc1ccc([N+](=O)[O-])cc1 (configuration not stated) | 74.8 | 56.4 | 75.6 | > 100 | 35.9 | > 100 | 63.9 | > 100 | – | > 100 | – | – | – | – | – | – | – | – | – | –
13 | COc1ccc(OC)c(NC(=O)C(=O)C(C(=O)c2ccccc2F)C2OC(=O)c3ccccc32)c1 (configuration not stated) | > 100 | > 100 | > 100 | > 100 | > 100 | > 100 | 89.1 | > 100 | – | – | – | – | – | – | – | – | – | – | – | –
14 | O=C1CC(c2ccccc2Cl)C2(C(=O)NC(=O)NC2=O)C(c2ccccc2Cl)C1 (configuration not stated) | > 100 | > 100 | > 100 | > 100 | – | > 100 | > 100 | > 100 | > 100 | > 100 | – | – | – | – | – | – | – | – | – | –
15 | CCOC(=O)Cn1nnc2cc(Nc3c(C)[n+]([O-])c4cc(F)c(OCC)cc4[n+]3[O-])ccc21 | > 100 | – | > 100 | > 100 | – | > 100 | – | > 100 | > 100 | – | – | – | – | – | – | – | – | – | – | –
16 | Cc1cnc2[nH]c(-c3cccc(F)c3)cc(=O)c2c1 | > 100 | > 100 | – | – | 0.0582 | 2.03 | 0.378 | – | 1.3 | – | – | – | – | – | – | – | – | – | – | –
17 | CCN1CCN(Cc2ccc(NC(=O)Nc3ccc(-n4ccc5c(NC(=O)c6ccccc6)nccc54)cc3)cc2C(F)(F)F)CC1 | – | – | 19.1 | – | 2.51 | – | > 100 | 1.7 | 2.34 | 2.77 | – | – | 5.17 | – | 0.942 | – | 0.159 | 0.513 | 1.12 | 1.43
18 | CC1CCc2sc3nc4n(c(=O)c3c2C1)CC(C)S4 (configuration not stated) | – | 38.7 | – | 52.6 | 39.3 | > 100 | > 100 | > 100 | > 100 | > 100 | – | – | – | – | – | – | – | – | – | –
19 | N#C/C(=C\c1cccc(Br)c1)c1nc2ccccc2c(=O)[nH]1 | > 100 | > 100 | – | > 100 | > 100 | – | > 100 | > 100 | > 100 | – | – | – | – | – | – | – | – | – | – | –
20 | COCC#C[C@@]1(O)CCCCC1CC(OC)OC (some centres not stated) | > 100 | > 100 | > 100 | > 100 | > 100 | > 100 | > 100 | – | > 100 | – | – | – | – | – | – | – | – | – | – | –
21 | C=C1C[C@@H]2CC[C@@]34C[C@H]5O[C@H]6[C@@H](O3)[C@H]3O[C@H](CC[C@@H]3O[C@H]6[C@H]5O4)CC(=O)C[C@@H]3[C@@H](OC)[C@@H](C[C@H](O)CN)O[C@H]3C[C@H]3O[C@@H](CC[C@@H]1O2)C[C@@H](C)C3=C | 0.0479 | > 1 | 0.245 | 0.251 | 0.00193 | 0.173 | – | > 1 | 0.0241 | > 1 | – | – | – | – | – | – | – | – | – | –
22 | O=C(/C=C\Nc1ccccc1O)C(F)(F)F | > 100 | > 100 | – | > 100 | 71.1 | > 100 | > 100 | > 100 | > 100 | > 100 | – | – | – | – | – | – | – | – | – | –

From PubChem BioAssay (NCI)
